Data reported in PMC4979471 (Cell Death Discovery, 2015).
Where two headings read alike, the source gives them in different places.

Assays:
Assay in all cases: Kinase selectivity, P33-radiolabeled assay
Assay type in all cases: biochemical
Settings in all cases: 10 μM ATP
NEK1 = molecular target: T1, NEK1 (Homo sapiens, UniProt Q96PY6)
T1 construct: purchased Reaction Biology Corp
T1 sequence (Q96PY6 1-1258): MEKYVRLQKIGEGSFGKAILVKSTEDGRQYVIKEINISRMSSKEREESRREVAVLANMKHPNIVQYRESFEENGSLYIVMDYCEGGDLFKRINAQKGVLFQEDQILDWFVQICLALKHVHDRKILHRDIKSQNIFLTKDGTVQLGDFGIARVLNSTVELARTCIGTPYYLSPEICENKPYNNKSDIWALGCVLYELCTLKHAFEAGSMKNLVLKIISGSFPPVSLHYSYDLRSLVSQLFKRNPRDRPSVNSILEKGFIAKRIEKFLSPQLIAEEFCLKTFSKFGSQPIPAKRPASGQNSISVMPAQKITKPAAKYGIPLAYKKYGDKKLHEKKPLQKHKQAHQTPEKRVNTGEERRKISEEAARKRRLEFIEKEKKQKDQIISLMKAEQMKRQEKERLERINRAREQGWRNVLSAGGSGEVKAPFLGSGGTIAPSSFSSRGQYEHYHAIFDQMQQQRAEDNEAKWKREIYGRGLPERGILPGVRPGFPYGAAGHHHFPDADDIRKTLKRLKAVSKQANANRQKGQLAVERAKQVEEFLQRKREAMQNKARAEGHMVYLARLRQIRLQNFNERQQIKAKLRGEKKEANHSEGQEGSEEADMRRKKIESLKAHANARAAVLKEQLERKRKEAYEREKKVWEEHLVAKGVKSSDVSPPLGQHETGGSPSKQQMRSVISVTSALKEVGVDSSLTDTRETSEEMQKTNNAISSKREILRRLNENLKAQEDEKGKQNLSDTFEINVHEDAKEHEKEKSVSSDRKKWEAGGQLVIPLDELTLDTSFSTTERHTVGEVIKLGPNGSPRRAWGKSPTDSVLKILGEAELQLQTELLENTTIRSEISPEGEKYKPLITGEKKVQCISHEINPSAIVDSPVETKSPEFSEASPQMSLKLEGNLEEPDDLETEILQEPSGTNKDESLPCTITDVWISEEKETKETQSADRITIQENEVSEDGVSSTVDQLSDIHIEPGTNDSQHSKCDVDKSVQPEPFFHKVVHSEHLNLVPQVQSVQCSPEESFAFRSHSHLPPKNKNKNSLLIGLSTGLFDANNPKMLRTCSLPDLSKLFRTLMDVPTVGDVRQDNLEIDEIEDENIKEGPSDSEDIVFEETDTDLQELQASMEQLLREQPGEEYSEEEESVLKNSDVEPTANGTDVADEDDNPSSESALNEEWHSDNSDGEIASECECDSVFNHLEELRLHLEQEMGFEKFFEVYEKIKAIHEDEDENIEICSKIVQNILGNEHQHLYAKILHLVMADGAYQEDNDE
Procedure, shortened: (§1)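 Duplicate single-concentration testing used 10 μM compound. The ATP concentration was also 10 μM.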

MUSK = molecular target: T2, MUSK (Homo sapiens, UniProt O15146)
T2 construct: purchased Reaction Biology Corp
T2 sequence (O15146 24-869): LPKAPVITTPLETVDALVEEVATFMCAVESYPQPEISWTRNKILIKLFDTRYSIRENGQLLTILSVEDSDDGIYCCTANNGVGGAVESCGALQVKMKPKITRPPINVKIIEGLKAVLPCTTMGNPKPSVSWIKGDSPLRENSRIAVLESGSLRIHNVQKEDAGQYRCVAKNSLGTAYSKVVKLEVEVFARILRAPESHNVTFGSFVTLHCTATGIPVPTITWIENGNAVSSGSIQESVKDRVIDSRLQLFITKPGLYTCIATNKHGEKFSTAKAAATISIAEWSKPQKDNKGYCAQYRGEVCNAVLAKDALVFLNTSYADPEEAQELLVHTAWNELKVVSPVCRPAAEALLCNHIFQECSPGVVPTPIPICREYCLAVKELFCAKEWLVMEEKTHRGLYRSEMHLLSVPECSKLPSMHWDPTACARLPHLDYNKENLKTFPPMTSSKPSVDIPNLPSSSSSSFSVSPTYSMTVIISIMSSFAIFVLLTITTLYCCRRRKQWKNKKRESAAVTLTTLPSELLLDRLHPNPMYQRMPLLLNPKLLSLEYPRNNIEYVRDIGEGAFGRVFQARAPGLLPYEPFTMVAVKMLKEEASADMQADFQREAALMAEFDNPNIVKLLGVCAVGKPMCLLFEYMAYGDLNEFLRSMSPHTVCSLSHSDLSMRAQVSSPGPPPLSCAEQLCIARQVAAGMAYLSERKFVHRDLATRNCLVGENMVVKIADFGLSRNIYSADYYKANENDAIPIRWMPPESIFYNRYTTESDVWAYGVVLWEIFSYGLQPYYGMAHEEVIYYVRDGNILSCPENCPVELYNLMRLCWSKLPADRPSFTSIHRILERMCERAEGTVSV
Procedure, shortened: as §1

PAK4 = molecular target: T3, PAK4 (Homo sapiens, UniProt O96013)
T3 construct: purchased Reaction Biology Corp
Procedure, shortened: as §1

AKT1 = molecular target: T4, AKT1 (Homo sapiens, UniProt P31749)
T4 construct: purchased Reaction Biology Corp
Procedure, shortened: as §1

MST4 = molecular target: T5, MST4 (Homo sapiens, UniProt Q9P289)
T5 construct: purchased Reaction Biology Corp
Procedure, shortened: as §1

STK16 = molecular target: T6, STK16 (Homo sapiens, UniProt O75716)
T6 construct: purchased Reaction Biology Corp
Procedure, shortened: as §1

NEK6 = molecular target: T7, NEK6 (Homo sapiens, UniProt Q9HC98)
T7 construct: purchased Reaction Biology Corp
Procedure, shortened: as §1

DAPK1 = molecular target: T8, DAPK1 (Homo sapiens, UniProt P53355)
T8 construct: purchased Reaction Biology Corp
Procedure, shortened: as §1

[1] = read-out: % Enzyme Activity (relative to DMSO controls) AVG
[2] = read-out: % Enzyme Activity (relative to DMSO controls) Data 1
[3] = read-out: % Enzyme Activity (relative to DMSO controls) Data 2

T4 sequence (P31749 whole entry): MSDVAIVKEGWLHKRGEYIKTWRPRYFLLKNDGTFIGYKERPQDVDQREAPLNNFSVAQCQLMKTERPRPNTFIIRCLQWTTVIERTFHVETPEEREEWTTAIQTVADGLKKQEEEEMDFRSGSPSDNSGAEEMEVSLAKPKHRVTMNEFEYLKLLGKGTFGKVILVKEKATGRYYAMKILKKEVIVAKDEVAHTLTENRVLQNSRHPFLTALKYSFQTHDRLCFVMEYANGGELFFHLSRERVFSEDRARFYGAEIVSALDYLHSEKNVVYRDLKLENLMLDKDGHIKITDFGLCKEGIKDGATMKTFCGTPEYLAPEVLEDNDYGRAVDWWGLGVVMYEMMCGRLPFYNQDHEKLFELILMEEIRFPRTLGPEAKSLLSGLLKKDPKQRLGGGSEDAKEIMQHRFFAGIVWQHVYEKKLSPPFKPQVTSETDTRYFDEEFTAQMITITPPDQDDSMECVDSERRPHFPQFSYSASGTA
T5 sequence (Q9P289 whole entry): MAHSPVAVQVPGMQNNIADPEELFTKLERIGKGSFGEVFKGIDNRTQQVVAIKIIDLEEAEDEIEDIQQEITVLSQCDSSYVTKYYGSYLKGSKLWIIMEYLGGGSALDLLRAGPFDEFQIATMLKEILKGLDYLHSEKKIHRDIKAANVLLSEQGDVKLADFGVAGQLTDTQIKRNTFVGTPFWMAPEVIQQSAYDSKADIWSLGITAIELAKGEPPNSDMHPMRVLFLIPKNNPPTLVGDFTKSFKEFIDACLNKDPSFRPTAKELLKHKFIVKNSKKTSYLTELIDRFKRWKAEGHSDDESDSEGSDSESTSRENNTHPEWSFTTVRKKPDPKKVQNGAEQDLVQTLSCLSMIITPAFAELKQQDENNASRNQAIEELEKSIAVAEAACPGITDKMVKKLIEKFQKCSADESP
T3 sequence (O96013 whole entry): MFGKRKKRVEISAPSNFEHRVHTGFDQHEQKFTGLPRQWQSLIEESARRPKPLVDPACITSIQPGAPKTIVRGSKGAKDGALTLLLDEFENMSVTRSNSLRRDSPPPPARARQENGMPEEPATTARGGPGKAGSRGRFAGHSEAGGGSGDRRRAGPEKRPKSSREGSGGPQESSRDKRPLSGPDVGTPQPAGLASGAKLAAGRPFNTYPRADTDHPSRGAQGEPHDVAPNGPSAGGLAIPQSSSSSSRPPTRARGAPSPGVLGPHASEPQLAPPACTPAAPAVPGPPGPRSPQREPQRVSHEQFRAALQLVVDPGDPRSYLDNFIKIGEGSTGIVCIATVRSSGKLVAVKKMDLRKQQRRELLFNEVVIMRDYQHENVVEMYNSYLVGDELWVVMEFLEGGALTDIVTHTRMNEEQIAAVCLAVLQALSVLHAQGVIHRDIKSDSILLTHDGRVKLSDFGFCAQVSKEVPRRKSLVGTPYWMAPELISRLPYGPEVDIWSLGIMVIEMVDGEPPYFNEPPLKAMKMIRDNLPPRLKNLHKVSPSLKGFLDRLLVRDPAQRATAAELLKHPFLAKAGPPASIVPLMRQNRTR
T6 sequence (O75716 whole entry): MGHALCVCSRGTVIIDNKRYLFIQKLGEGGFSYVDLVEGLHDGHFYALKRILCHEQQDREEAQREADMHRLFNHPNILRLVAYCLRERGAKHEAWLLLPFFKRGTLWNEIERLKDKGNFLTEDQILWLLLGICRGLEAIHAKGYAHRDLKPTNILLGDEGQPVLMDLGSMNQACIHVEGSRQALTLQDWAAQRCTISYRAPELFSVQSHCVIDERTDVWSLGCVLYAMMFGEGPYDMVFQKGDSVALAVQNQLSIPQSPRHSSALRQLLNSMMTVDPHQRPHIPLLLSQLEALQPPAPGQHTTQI
T7 sequence (Q9HC98 whole entry): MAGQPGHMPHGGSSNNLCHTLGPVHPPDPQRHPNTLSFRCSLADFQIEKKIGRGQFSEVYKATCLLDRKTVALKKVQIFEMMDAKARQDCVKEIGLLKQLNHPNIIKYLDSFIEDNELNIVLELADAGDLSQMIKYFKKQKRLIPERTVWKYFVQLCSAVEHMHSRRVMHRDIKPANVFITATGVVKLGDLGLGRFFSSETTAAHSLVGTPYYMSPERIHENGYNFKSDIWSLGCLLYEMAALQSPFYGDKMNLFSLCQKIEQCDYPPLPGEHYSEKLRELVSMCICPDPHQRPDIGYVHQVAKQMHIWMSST
T8 sequence (P53355 whole entry): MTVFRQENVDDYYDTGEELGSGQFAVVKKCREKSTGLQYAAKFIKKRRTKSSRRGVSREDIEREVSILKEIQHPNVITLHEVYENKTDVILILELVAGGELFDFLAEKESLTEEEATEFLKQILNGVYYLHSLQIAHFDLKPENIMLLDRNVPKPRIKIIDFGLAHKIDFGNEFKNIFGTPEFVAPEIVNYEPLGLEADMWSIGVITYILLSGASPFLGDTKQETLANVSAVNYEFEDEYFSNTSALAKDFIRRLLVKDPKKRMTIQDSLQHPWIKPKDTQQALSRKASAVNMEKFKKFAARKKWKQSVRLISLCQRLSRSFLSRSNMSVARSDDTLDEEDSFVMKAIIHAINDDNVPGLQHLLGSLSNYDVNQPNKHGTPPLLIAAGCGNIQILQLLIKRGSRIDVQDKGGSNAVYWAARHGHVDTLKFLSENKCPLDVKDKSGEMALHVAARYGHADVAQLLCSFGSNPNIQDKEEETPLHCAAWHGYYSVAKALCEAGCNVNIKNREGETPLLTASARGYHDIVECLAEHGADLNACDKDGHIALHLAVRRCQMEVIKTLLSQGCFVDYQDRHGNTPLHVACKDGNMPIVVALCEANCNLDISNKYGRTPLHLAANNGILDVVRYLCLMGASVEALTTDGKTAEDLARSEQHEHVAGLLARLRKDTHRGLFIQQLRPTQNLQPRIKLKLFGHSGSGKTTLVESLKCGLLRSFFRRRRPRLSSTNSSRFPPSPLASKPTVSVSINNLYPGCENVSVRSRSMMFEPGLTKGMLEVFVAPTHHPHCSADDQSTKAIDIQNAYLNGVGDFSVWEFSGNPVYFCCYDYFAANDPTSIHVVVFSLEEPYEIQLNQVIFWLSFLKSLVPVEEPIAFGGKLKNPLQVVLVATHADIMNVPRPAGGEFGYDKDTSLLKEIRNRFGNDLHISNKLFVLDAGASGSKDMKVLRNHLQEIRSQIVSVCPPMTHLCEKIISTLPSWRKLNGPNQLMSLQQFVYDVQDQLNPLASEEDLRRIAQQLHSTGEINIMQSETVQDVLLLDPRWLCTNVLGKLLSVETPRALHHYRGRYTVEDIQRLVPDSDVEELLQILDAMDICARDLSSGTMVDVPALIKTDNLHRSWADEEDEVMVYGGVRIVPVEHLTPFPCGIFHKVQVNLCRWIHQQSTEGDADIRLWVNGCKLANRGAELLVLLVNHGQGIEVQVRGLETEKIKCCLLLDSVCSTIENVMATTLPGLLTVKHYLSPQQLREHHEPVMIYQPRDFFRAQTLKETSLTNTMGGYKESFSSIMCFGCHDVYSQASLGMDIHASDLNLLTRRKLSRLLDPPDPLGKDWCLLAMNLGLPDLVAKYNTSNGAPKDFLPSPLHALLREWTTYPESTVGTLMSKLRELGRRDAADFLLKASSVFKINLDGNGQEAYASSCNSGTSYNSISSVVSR

CC(C)(C)C(=O)N1N=CC[C@H]1c1ccccc1 [GSK′963]
remaining activity at 10 µM (NEK1; [1]): 97.5%
remaining activity at 10 µM (NEK1; [2]): 97.1%
remaining activity at 10 µM (NEK1; [3]): 98%
remaining activity at 10 µM (MUSK; [1]): 99.9%
remaining activity at 10 µM (MUSK; [2]): 99.2%
remaining activity at 10 µM (MUSK; [3]): 100%
remaining activity at 10 µM (PAK4; [1]): 93%
remaining activity at 10 µM (PAK4; [2]): 95.4%
remaining activity at 10 µM (PAK4; [3]): 90.5%
remaining activity at 10 µM (AKT1; [1]): 100%
remaining activity at 10 µM (AKT1; [2]): 102%
remaining activity at 10 µM (AKT1; [3]): 98.8%
remaining activity at 10 µM (MST4; [1]): 104%
remaining activity at 10 µM (MST4; [2]): 103%
remaining activity at 10 µM (MST4; [3]): 105%
remaining activity at 10 µM (STK16; [1]): 101%
remaining activity at 10 µM (STK16; [2]): 101%
remaining activity at 10 µM (STK16; [3]): 101%
remaining activity at 10 µM (NEK6; [1]): 97.9%
remaining activity at 10 µM (NEK6; [2]): 100%
remaining activity at 10 µM (NEK6; [3]): 95.5%
remaining activity at 10 µM (DAPK1; [1]): 70.8%
remaining activity at 10 µM (DAPK1; [2]): 72.5%
remaining activity at 10 µM (DAPK1; [3]): 69.2%
